Test results from patent publication US8530468B2 (Cancer Research Technology Limited, priority 2008, dated 2013).
Where two headings read alike, the source gives them in different places.

Tests used:
CHK1 = biological target: T1, CHK1 (Homo sapiens, UniProt O14757); assay: CHK1 kinase function inhibition (DELFIA assay, phosphorylation of CDC25C peptide); assay type: biochemical; conditions: CHK1 1 nM, ATP 30 μM, 30 minutes at room temperature
T1 sequence (O14757 1-476): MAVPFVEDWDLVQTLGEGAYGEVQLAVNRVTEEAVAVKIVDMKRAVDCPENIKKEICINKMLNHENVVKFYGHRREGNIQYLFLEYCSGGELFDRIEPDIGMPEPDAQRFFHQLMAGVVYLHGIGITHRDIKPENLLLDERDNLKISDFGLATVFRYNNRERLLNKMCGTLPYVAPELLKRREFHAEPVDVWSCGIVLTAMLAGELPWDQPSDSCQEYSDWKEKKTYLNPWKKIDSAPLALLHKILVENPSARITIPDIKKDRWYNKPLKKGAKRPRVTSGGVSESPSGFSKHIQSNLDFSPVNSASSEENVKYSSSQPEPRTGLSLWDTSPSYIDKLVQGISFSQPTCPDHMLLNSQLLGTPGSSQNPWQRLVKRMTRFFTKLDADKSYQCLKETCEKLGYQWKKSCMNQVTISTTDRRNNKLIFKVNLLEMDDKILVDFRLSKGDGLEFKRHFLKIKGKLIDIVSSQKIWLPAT

[1] = system: HT29 colon carcinoma cells; assay: Cytotoxicity assay (SRB); assay type: cell-based; conditions: Homo sapiens, read-out: SRB IC50 (concentration required to inhibit growth by 50%)
HT29 cells = assay: Mitosis inhibition assay (MIA), checkpoint abrogation after etoposide; assay type: cell-based; conditions: Homo sapiens, HT-29, etoposide 50 μM 1 hour, then compound with nocodazole 100 ng/mL, 21 hours, read-out: MIA IC50 (concentration required to allow 50% of cells to enter mitosis)

Row | Structure (SMILES) | IC50 (CHK1) | further results
1 | Cn1cnc2cnc(Nc3cnc(C#N)c(OCC4CCNCC4)n3)cc21 | ≤ 1 µM | 
2 | N#Cc1ncc(Nc2cc3ccccc3cn2)nc1OCC1CCNCC1 [AA-003] |  | IC50 ([1]; HT-29, 96 h): ≤ 10 µM
3 | Clc1cccc2cc(Nc3cncc(OCC4CCNCC4)n3)ncc12 [AA-005] | 1 to 10 µM | 
4 | N#Cc1ncc(Nc2cc3cccc(Cl)c3cn2)nc1OCC1CCNCC1 [AA-006] |  | IC50 ([1]; HT-29, 96 h): ≤ 10 µM
5 | N#Cc1ncc(Nc2cc3cccc(Cl)c3cn2)nc1OC1CCCNC1 (centres unmarked) [AA-007] |  | IC50 (HT29 cells): ≤ 10 µM; IC50 ([1]; HT-29, 96 h): ≤ 10 µM
6 | CN1CCCC(COc2nc(Nc3cc4cccc(Cl)c4cn3)cnc2C#N)C1 (centres unmarked) [AA-009] | ≤ 1 µM | 
7 | CC(CN(C)C)Oc1nc(Nc2cc3cccc(Cl)c3cn2)cnc1C#N (centres unmarked) [AA-010] |  | IC50 (HT29 cells): ≤ 10 µM; IC50 ([1]; HT-29, 96 h): ≤ 10 µM
8 | COc1cc(OC)c2cnc(Nc3cnc(C#N)cn3)cc2c1 [AA-011, 5-(6,8-Dimethoxyisoquinolin-3-ylamino)pyrazine-2-carbonitrile] | 1 to 10 µM | 
9 | N#Cc1ncc(Nc2cc3ccccc3cn2)nc1OC1CCCNC1 (centres unmarked) [AA-015] |  | IC50 ([1]; HT-29, 96 h): ≤ 10 µM
10 | N#Cc1cnc(Nc2cc3cccc(Br)c3cn2)cn1 [AA-017, 5-(8-Bromoisoquinolin-3-ylamino)pyrazine-2-carbonitrile] | 1 to 10 µM | 
11 | N#Cc1cnc(Nc2cc3cc(Cl)ccc3cn2)cn1 [AA-018, 5-(6-Chloroisoquinolin-3-ylamino)pyrazine-2-carbonitrile] | 1 to 10 µM | 
12 | N#Cc1cnc(Nc2cc3cccc(-c4cc[nH]n4)c3cn2)cn1 [AA-019, 5-(8-(1H-pyrazol-3-yl)isoquinolin-3-ylamino)pyrazine-2-carbonitrile] | 1 to 10 µM | 
13 | COc1cccc2cc(Nc3cnc(C#N)cn3)ncc12 [AA-021, 5-(8-methoxyisoquinolin-3-ylamino)pyrazine-2-carbonitrile] | 1 to 10 µM | 
14 | C[C@H](CN(C)C)Oc1nc(Nc2cc3ccccc3cn2)cnc1C#N [AA-022] |  | IC50 (HT29 cells): ≤ 10 µM; IC50 ([1]; HT-29, 96 h): ≤ 10 µM
15 | C[C@H](CN(C)C)Oc1nc(Nc2cc3cccc(Cl)c3cn2)cnc1C#N [AA-023] |  | IC50 (HT29 cells): ≤ 10 µM; IC50 ([1]; HT-29, 96 h): ≤ 10 µM
16 | Cc1cccc2cc(Nc3cnc(C#N)cn3)ncc12 [AA-024] | 1 to 10 µM | 
17 | N#Cc1ncc(Nc2cc3cccc(NCCCN4CCOCC4)c3cn2)nc1OCC1CC1 [AA-028] | ≤ 1 µM | 
18 | N#Cc1ncc(Nc2cc3cccc(NCCN4CCOCC4)c3cn2)nc1OCC1CCOC1 (centres unmarked) [AA-029] | ≤ 1 µM | IC50 (HT29 cells): ≤ 10 µM

Row | Structure (SMILES) | IC50 (CHK1) | further results
19 | COc1nc(Nc2cc3cccc(NCCN4CCOCC4)c3cn2)cnc1C#N [AA-030] | ≤ 1 µM | IC50 (HT29 cells): ≤ 10 µM
20 | COCCCNc1cccc2cc(Nc3cnc(C#N)cn3)ncc12 [AA-035] | ≤ 1 µM | IC50 (HT29 cells): ≤ 10 µM
21 | COCCNc1cccc2cc(Nc3cnc(C#N)cn3)ncc12 [AA-036] | ≤ 1 µM | IC50 (HT29 cells): ≤ 10 µM
22 | COCCNc1cccc2cc(Nc3cnc(C#N)c(O[C@H](C)CN(C)C)n3)ncc12 [AA-039] |  | IC50 (HT29 cells): ≤ 10 µM; IC50 ([1]; HT-29, 96 hours): ≤ 10 µM
23 | COc1nc(Nc2cc3cccc(NCCO)c3cn2)cnc1C#N [AA-042] | ≤ 1 µM | 
24 | N#Cc1ncc(Nc2cc3cccc(NCCO)c3cn2)nc1OCC1CC1 [AA-045] | ≤ 1 µM | 
25 | CC(C)CCOc1nc(Nc2cc3cccc(NCCO)c3cn2)cnc1C#N [AA-046] | 1 to 10 µM | 
26 | N#Cc1ncc(Nc2cc3cccc(NCCO)c3cn2)nc1OCC1CCOC1 (centres unmarked) [AA-047] | 1 to 10 µM | 
27 | COc1nc(Nc2cc3ccccc3cn2)cnc1C#N [AA-048] | ≤ 1 µM | 
28 | CC(=O)Nc1cccc2cc(Nc3cnc(C#N)cn3)ncc12 [AA-062, N-(3-(5-Cyanopyrazin-2-ylamino)isoquinolin-8-yl)acetamide] | ≤ 1 µM | 
29 | COCCC(=O)Nc1cccc2cc(Nc3cnc(C#N)cn3)ncc12 [AA-063, N-(3-(5-Cyanopyrazin-2-ylamino)isoquinolin-8-yl)-3-methoxypropanamide] | 1 to 10 µM | 
30 | CC(=O)Nc1cccc2cc(Nc3cnc(C#N)c(O[C@H](C)CN(C)C)n3)ncc12 [AA-064] | ≤ 1 µM | 
31 | COCCNC(=O)c1cccc2cc(Nc3cnc(C#N)c(OC(C)CN(C)C)n3)ncc12 (centres unmarked) [AA-066] | 1 to 10 µM | IC50 (HT29 cells): ≤ 10 µM
32 | CCOC(=O)COc1nc(Nc2cc3ccccc3cn2)cnc1C#N [AA-068, Ethyl 2-(3-cyano-6-(isoquinolin-3-ylamino)pyrazin-2-yloxy)acetate] | 1 to 10 µM | 
33 | N#Cc1ncc(Nc2cc3ccccc3cn2)nc1OCC(=O)O [AA-069, 2-(3-Cyano-6-(isoquinolin-3-ylamino)pyrazin-2-yloxy)acetic acid] | 1 to 10 µM | 
34 | N#Cc1cnc(Nc2cc3c(Br)ccc(Cl)c3cn2)cn1 [AA-070, 5-(5-Bromo-8-chloroisoquinolin-3-ylamino)pyrazine-2-carbonitrile] | 1 to 10 µM | 
35 | C[C@H](C[N+](C)(C)[O-])Oc1nc(Nc2cc3cccc(Cl)c3cn2)cnc1C#N [AA-071, (R)-2-(6-(8-Chloroisoquinolin-3-ylamino)-3-cyanopyrazin-2-yloxy)-N,N-dimethylpropan-1-amine oxide] | ≤ 1 µM | IC50 (HT29 cells): ≤ 10 µM
36 | N#Cc1ncc(Nc2cc3cccc(F)c3cn2)nc1O[C@@H]1CCNC1 [AA-072] | ≤ 1 µM | IC50 (HT29 cells): ≤ 10 µM

Second part, led by results:

Row | IC50 (CHK1) | Structure (SMILES) | further results
37 | 1 to 10 µM | N#Cc1cnc(Nc2cc3[nH]c(C4CC4)nc3cn2)cn1 [BB-001, 5-(2-Cyclopropyl-1H-imidazo[4,5-c]pyridin-6-ylamino)pyrazine-2-carbonitrile] | 
38 | 1 to 10 µM | N#Cc1cnc(Nc2cc3[nH]c(-c4ccc(N5CCNCC5)cc4)nc3cn2)cn1 [BB-006] | 
39 | ≤ 1 µM | N#Cc1cnc(Nc2cc3[nH]c(CCC4CCNCC4)nc3cn2)cn1 [BB-011] | 
40 | 1 to 10 µM | c1nc2cnc(Nc3cncc(OCC4CCNCC4)n3)cc2[nH]1 [BB-013] | 
41 | 1 to 10 µM | N#Cc1cnc(Nc2cc3c(cn2)ncn3CCN)cn1 [BB-019, 5-(1-(2-Aminoethyl)-1H-imidazo[4,5-c]pyridin-6-ylamino)pyrazine-2-carbonitrile] | 
42 | 1 to 10 µM | N#Cc1cnc(Nc2cc3c(cn2)ncn3CC2CCCNC2)cn1 (centres unmarked) [BB-020, 5-(1-(Piperidin-3-ylmethyl)-1H-imidazo[4,5-c]pyridin-6-ylamino)pyrazine-2-carbonitrile] | 
43 | ≤ 1 µM | N#Cc1cnc(Nc2cc3c(cn2)ncn3[C@H]2CCCNC2)cn1 [BB-021, (S)-5-(1-(Piperidin-3-yl)-1H-imidazo[4,5-c]pyridin-6-ylamino)pyrazine-2-carbonitrile] | 
44 | 1 to 10 µM | N#Cc1cnc(Nc2cc3c(cn2)ncn3C2CCNCC2)cn1 [BB-022, 5-(1-(Piperidin-4-yl)-1H-imidazo[4,5-c]pyridin-6-ylamino)pyrazine-2-carbonitrile] | 
45 | 1 to 10 µM | N#Cc1cnc(Nc2cc3c(cn2)ncn3[C@@H]2CCCNC2)cn1 [BB-023, (R)-5-(1-(Piperidin-3-yl)-1H-imidazo[4,5-c]pyridin-6-ylamino)pyrazine-2-carbonitrile] | 
46 | ≤ 1 µM | CC(CN(C)C)Oc1nc(Nc2cc3[nH]cnc3cn2)cnc1C#N (centres unmarked) [BB-024, 5-(3H-Imidazo[4,5-c]pyridin-6-ylamino)-3-(1-(dimethylamino)propan-2-yloxy)pyrazine-2-carbonitrile] | 
47 | ≤ 1 µM | CN1CCCC(Oc2nc(Nc3cc4[nH]cnc4cn3)cnc2C#N)C1 (centres unmarked) [BB-025] | 
48 | ≤ 1 µM | CN1CCCC(COc2nc(Nc3cc4[nH]cnc4cn3)cnc2C#N)C1 (centres unmarked) [BB-026] | 
49 | ≤ 1 µM | N#Cc1ncc(Nc2cc3[nH]cnc3cn2)nc1O[C@@H]1CCNC1 [BB-027] | 
50 | 1 to 10 µM | N#Cc1cnc(Nc2cc3cc[nH]c3cn2)cn1 [CC-001, 5-(1H-Pyrrolo[2,3-c]pyridin-5-ylamino)pyrazine-2-carbonitrile] | 
